In patent publication US12145923B2, “Tetrahydroisoquinoline compound, preparation method therefor, pharmaceutical composition containing same, and use thereof” (SHANGHAI INSTITUTE OF MATERIA MEDICA, CHINESE ACADEMY OF …, priority 2018, dated 2024):

Experiments:
[1] = target: Human PDE4D catalytic domain (Homo sapiens (Human), UniProt Q08499); assay: Scintillation Proximity Assay (SPA), inhibition of PDE4D catalytic domain activity; assay type: biochemical; details: Compound concentration: 1 μM; read-out: PDE4D enzyme activity inhibition rate %
Experimental: The scintillation Proximity Assay (SPA) method was used to determine the inhibitory effect of compounds on the activity of PDE4D catalytic domain. Human PDE4D catalytic domain protein was obtained by expression and purification in E. coli. […] [^3H]-cAMP, scintillation beads (RPNQO150, Perkin Elmer), and 96-well scintillation microplates (Isoplate-96, Perkin Elmer) were purchased from Perkin Elmer Company.
Finally, 10 μl [^3H]-cAMP (0.005 μCi/μl) was added and incubated for 30 min at 30° C. in a water bath. 50 μl SPA beads was added to quench the reaction, shaked appropriately, and stood for 20 minutes. A microplate scintillation counter was used.

[2] = tested on: tumor necrosis factor-α secretion in RAW 264.7 cells; assay: Inhibition of LPS-stimulated tumor necrosis factor-α secretion in RAW 264.7 cells (ELISA); assay type: cell-based, mouse; details: Mus musculus, RAW264.7, 4 h, read-out: Tumor necrosis factor-α inhibition rate/%
Experimental: After the activation by bacterial lipopolysaccharide (LPS), various inflammatory mediators such as tumor necrosis factor-α will be released; Phosphodiesterase PDE4 is also expressed in macrophages, and the inhibitory activity of the compound on phosphodiesterase PDE4 can be reflected by detecting the secretion of tumor necrosis factor-α.
Under the stimulation of 1 μg/ml LPS (L5886, Sigma, St. Louis, MO, USA), the cells were cultured in a 37° C., 5% CO2 incubator for 4 h. The background control with no stimulant and stimulation control wells were also set, with a total volume of 200 μl. The culture supernatant was collected by centrifugation, and the secretion level of tumor necrosis factor-α in the culture supernatant was detected by enzyme-linked immunosorbent assay. The tumor necrosis factor-α detection kit was purchased from BD Pharmingen (San Diego, CA, USA).

RAW 264.7 cells = assay: Cytotoxicity on RAW 264.7 cells (CCK-8 method); assay type: cell-based, mouse
Experimental: Mouse RAW 264.7 cells were purchased from American Type Culture Collection (Manassas, VA, USA), and cultivated in DMEM culture medium (Hyclone, South Logan, UT, USA) containing 10% fetal bovine serum (Hyclone, South Logan, UT, USA). Cells were collected and counted before use, and inoculated in a 96-well plate (Corning, NY, USA) at 1×10^5/well. […] 20 μl of CCK-8 solution (Dojindo, Kumamoto, Japan) was added at 30 min before the end of the culture. After the cultivation was ended, the absorbance OD value was measured at 450 nm (reference 650 nm) on amicroplate reader (Molecular Devices, Sunnyvale, CA, USA). The toxicity of the compound on RAW 264.7 cells was calculated by dividing the OD value of the test sample by the OD value of the cell control well, which was labeled as the cell survival rate M %.

TNF-α secretion in PBMC = assay: Inhibition of LPS-stimulated TNF-α secretion in PBMC (ELISA); assay type: cell-based; details: Homo sapiens, PBMC; for inhibition at 10 µM / inhibition at 1 µM: read-out: Inhibition rate %
Text: According to the difference in cell density in human blood, PBMC (peripheral blood mononuclear cell, PBMC) was directly separated and purified by gradient centrifugation using lymphocyte separation fluid. The cell type was mononuclear cells in blood, mainly including lymphocytes (T/B), monocytes, macrophages, dendritic cells and other minor cell types, of which lymphocytes account for a large part, which can directly in vitro simulate the blood immune environment.
PBMC cells isolated from human blood were implanted into 96-well plates at 2*10^5/ml; compounds in gradients were added, with at least three replicates for each gradient; After the PBMCs were incubated at 37° C., 5% CO2 for 1 hour, LPS was added (the final concentration was 10 ug/ml) to stimulate PBMC to express TNF-α, and incubated for another 18-20 h at 37° C., 5% C02. The 96-well plate was collected. The background control with no stimulant and stimulation control wells were also set, with a total volume of 200 μl. The culture supernatant was collected by centrifugation, and the expression level of TNF-α in the culture supernatant was detected by ELISA.

Human PDE4D catalytic domain, sequence (Q08499 386-715): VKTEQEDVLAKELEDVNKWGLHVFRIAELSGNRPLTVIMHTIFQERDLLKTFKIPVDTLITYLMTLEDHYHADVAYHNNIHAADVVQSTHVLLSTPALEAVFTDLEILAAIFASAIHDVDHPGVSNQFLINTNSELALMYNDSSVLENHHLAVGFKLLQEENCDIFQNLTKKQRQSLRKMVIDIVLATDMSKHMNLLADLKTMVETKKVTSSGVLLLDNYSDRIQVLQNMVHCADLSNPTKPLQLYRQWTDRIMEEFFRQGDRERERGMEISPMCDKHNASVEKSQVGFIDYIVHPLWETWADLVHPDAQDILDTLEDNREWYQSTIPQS

inhibition at 1 µM [1] [%]	SMILES	inhibition at 0.5 µM [2] [%]	inhibition at 5 µM [2] [%]	inhibition at 50 µM [2] [%]	Cell survival rate/% (RAW 264.7 cells; RAW 264.7, 0.5 μM) [%]	Cell survival rate/% (RAW 264.7 cells; RAW 264.7, 5 μM) [%]	Cell survival rate/% (RAW 264.7 cells; RAW 264.7, 50 μM) [%]	inhibition at 10 µM (TNF-α secretion in PBMC) [%]	also measured
70.8	COc1cc2c(cc1OC)[C@H](CCc1csc3ccccc13)N(C=O)CC2 [(S)-C61, (S)-1-(2-(benzo[b]thiothiophen-3-yl)ethyl)-6,7-dimethoxy-3,4-dihydroisoquinoline-2(1H)-formaldehyde]	–	–	–	–	–	–	–	–
49.4	CCOc1cc2c(cc1OC)CCN(S(=O)(=O)c1cccc(F)c1)[C@H]2CCc1c[nH]c2ccc(OC)cc12 [(S)-C50, (S)-7-ethoxy-6-methoxy-1-(2-(5-methoxy-1H-indol-3-yl)ethyl)-2-(3-fluorophenyl)sulfonyl-1,2,3,4-tetrahydroisoquinoline]	–	–	–	–	–	–	–	–
92.3	CCOc1cc2c(cc1OC)CCN(C=O)[C@H]2CCc1c[nH]c2ccc(OC(F)(F)F)cc12 [(S)-C76, (S)-7-ethoxy-6-methoxy-1-(2-(5-trifluoromethoxy-1H-indol-3-yl)ethyl)-3,4-dihydroisoquinoline-2(1H)-formaldehyde]	–	–	–	–	–	–	–	–
46	CCOc1cc2c(cc1OC)CCN(C(=O)C(F)(F)F)[C@H]2CCc1c[nH]c2ccc(OC)cc12 [(S)-C54, (S)-7-ethoxy-1-(2-(5-methoxy-1H-indol-3-yl)ethyl)-6-methoxy-3,4-dihydroisoquinoline-2(1H)-trifluoroethane-1-one]	–	–	–	–	–	–	–	–
49.7	CCOc1cc2c(cc1OC)CCN(S(=O)(=O)c1ccc(F)cc1)[C@H]2CCc1c[nH]c2ccc(OC)cc12 [(S)-C58, (S)-7-ethoxy-6-methoxy-1-(2-(5-methoxy-1H-indol-3-yl)ethyl)-2-(4-fluorophenyl)sulfonyl-1,2,3,4-tetrahydroisoquinoline]	–	–	–	–	–	–	–	–
56.3	CCOc1cc2c(cc1OC)CCN(S(=O)(=O)CC)[C@H]2CCc1c[nH]c2ccc(OC)cc12 [(S)-C53, (S)-7-ethoxy-6-methoxy-1-(2-(5-methoxy-1H-indol-3-yl)ethyl)-2-ethylsulfonyl-1,2,3,4-tetrahydroisoquinoline]	–	–	–	–	–	–	–	–
62	CCOc1cc2c(cc1OC)CCN(S(=O)(=O)C1CC1)[C@H]2CCc1c[nH]c2ccc(OC)cc12 [(S)-C48, (S)-7-ethoxy-6-methoxy-1-(2-(5-methoxy-1H-indol-3-yl)ethyl)-2-cyclopropylsulfonyl-1,2,3,4-tetrahydroisoquinoline]	–	–	–	–	–	–	–	–

The next lines start with the molecule.

SMILES	inhibition at 1 µM [1] [%]	inhibition at 0.5 µM [2] [%]	inhibition at 5 µM [2] [%]	inhibition at 50 µM [2] [%]	Cell survival rate/% (RAW 264.7 cells; RAW 264.7, 0.5 μM) [%]	Cell survival rate/% (RAW 264.7 cells; RAW 264.7, 5 μM) [%]	Cell survival rate/% (RAW 264.7 cells; RAW 264.7, 50 μM) [%]	inhibition at 10 µM (TNF-α secretion in PBMC) [%]	also measured
CCOc1cc2c(cc1OC)CCN(S(=O)(=O)c1ccc(F)cc1F)[C@H]2CCc1c[nH]c2ccc(OC)cc12 [(S)-C52, (S)-7-ethoxy-6-methoxy-1-(2-(5-methoxy-1H-indol-3-yl)ethyl)-2-(2,4-difluorophenyl)sulfonyl-1,2,3,4-tetrahydroisoquinoline]	36.8	–	–	–	–	–	–	–	–
CCOc1cc2c(cc1OC)CCN(C=O)[C@H]2Cc1c[nH]c2ccc(OC)cc12 [(S)-C18, (S)-7-ethoxy-6-methoxy-1-((5-methoxy-1H-indol-3-yl)methyl)-3,4-dihydroisoquinoline-2(1H)-formaldehyde]	–	15.8	14.5	38.8	118	111.5	112.9	39.4	–
CCOc1cc2c(cc1OC)CCN(CCS(C)(=O)=O)[C@H]2Cc1c[nH]c2ccccc12 [(S)-C14, (S)-1-((1H-indol-3-yl)methyl)-7-ethoxy-6-methoxy-2-(2-(methylsulfonyl)ethyl)-1,2,3,4-tetrahydroisoquinoline]	–	2.4	-2.2	13.6	128.3	98.8	97.3	54.5	inhibition at 1 µM (TNF-α secretion in PBMC): 17%
COc1cc2c(cc1OC)C(Cc1c[nH]c3ccccc13)N(CCS(C)(=O)=O)CC2 (stereo not shown) [Compound C12, 1-((1H-indol-3-yl)methyl)-6,7-dimethoxy-2-(2-(methylsulfonyl)ethyl)-1,2,3,4-tetrahydroisoquinoline]	–	-15.1	-7.9	25.5	93.6	115.7	103.8	52.7	inhibition at 1 µM (TNF-α secretion in PBMC): 45.4%
COc1cc2c(cc1OCC1CC1)[C@H](CCc1c[nH]c3ccccc13)N(C=O)CC2 [(S)-A3, (S)-1-(2-(1H-indol-3-yl)ethyl)-7-(cyclopropyl-methoxy)-6-methoxy-3,4-dihydroisoquinoline-2(1H)-formaldehyde]	–	-2.9	-3.5	54.6	110.9	86.5	77.3	76.6	IC50 (TNF-α secretion in PBMC): 2650 nM; inhibition at 1 µM (TNF-α secretion in PBMC): 31.2%
